Here are results for 21 molecules from ChEMBL document CHEMBL5214953, “Structure-activity-relationship study of semi-synthetically modified fusicoccins on their stabilization effect for 14-3-3-phospholigand interactions” (Bioorg Med Chem, 2022).

Active and inactive are the calls of the source. No cut-off for these calls is given here.

A word on the Kd: it is the concentration at which binding is half-saturated. For orientation: IC50 means the concentration that inhibits the measured activity by half.

Test [1] in a line: Stabilization of mode-3 phosphopeptide FAM-KRSHpSV binding to recombinant 14-3-3 zeta (unknown origin) measured by fluorescence polarization assay. Details: species or system Homo sapiens. (In fluorescence polarisation assays a small probe gives low polarisation when free and higher when bound to something large.)
A short description of test [2]: Stabilization of mode-1 phosphopeptide FAM-KRSHpSVP binding to recombinant 14-3-3 zeta (unknown origin) measured by fluorescence polarization assay. Set-up: species or system Homo sapiens.
The test system of test [3] is HL-60. The test can be described thus: Antiproliferative activity against human HL-60 cells measured after 48 hrs by WST assay. It counts as functional, cell-based. The following applies: HL-60, 48 h.
For a further test, the system named is HEK293. The test can be described thus: Antiproliferative activity against human HEK293 cells at 5 to 80 uM measured after 48 hrs by WST assay. The following applies: dose 5-80 µM. The format is functional, cell-based.
The test system of test [4] is HL-60. The test can be described thus: Antiproliferative activity against human HL-60 cells at 5 to 80 uM measured after 48 hrs by WST assay. The format is functional, cell-based. To be noted: dose 5-80 µM.

For the molecule `C=CC(C)(C)OC[C@H]1O[C@H](O[C@@H]2C3=C(C(C)C)C[C@H](OCc4ccc(C#N)cc4)[C@]3(C)/C=C3/[C@@H](COC)CC[C@H]3[C@@H](C)[C@H]2O)[C@H](O)[C@@H](O)[C@@H]1O`, the Kd is 380 nM in test [1] and 710 nM in test [2].
On the same counts, the results for `C=CC(C)(C)OC[C@H]1O[C@H](O[C@@H]2C3=C([C@H](C)CNC(C)=O)C[C@H](O)[C@]3(C)/C=C3/[C@@H](COC)CC[C@H]3[C@@H](C)[C@H]2O)[C@H](O)[C@@H](O)[C@@H]1O` are 38 nM and 170 nM.
In the case of `COC[C@H]1CC[C@@H]2/C1=C\[C@@]1(C)CCC(C(C)C)=C1[C@@H](O[C@H]1O[C@H](CNCc3ccccc3)[C@@H](O)[C@H](O)[C@H]1O)[C@H](O)[C@@H]2C`, the Kd in test [1] worked out at 250 nM; in test [2], 310 nM. In the test with HL-60 [3], this molecule displayed an IC50 of less than 5000 nM.
As to `COC[C@H]1CC[C@@H]2/C1=C\[C@@]1(C)CCC([C@H](C)CNC(=O)C(F)(F)F)=C1[C@@H](O[C@H]1O[C@@H]3COC(C)(C)O[C@H]3[C@H](O)[C@H]1O)[C@H](O)[C@@H]2C`, the Kd worked out at 42 nM in test [1] and 80 nM in test [2]. Also, the outcome in the test on HEK293 was Active.
`C=CC(C)(C)OC[C@H]1O[C@H](O[C@@H]2C3=C(C(C)C)C[C@H](OCc4ccc(C(=O)O)cc4)[C@]3(C)/C=C3/[C@@H](COC)CC[C@H]3[C@@H](C)[C@H]2O)[C@H](O)[C@@H](O)[C@@H]1O`: the results for the Kd in test [1] and in test [2] were 390 nM and 470 nM, respectively.
Take `CCOC[C@H]1CC[C@@H]2/C1=C\[C@@]1(C)CCC(C(C)C)=C1[C@@H](O[C@H]1O[C@@H]3COC(C)(C)O[C@H]3[C@H](O)[C@H]1O)[C@H](O)[C@@H]2C`: the Kd in test [2] came out at 750 nM.
`C=CC(C)(C)OC[C@H]1O[C@H](O[C@@H]2C3=C(C(C)C)C[C@H](OCc4ccc(N=[N+]=[N-])cc4)[C@]3(C)/C=C3/[C@@H](COC)CC[C@H]3[C@@H](C)[C@H]2O)[C@H](O)[C@@H](O)[C@@H]1O`: the Kd in test [1] was determined as 320 nM; in test [2], 620 nM.
As for `C=CC(C)(C)OC[C@H]1O[C@H](O[C@@H]2C3=C(C(C)C)C[C@H](OCc4ccc(C(=O)OC)cc4)[C@]3(C)/C=C3/[C@@H](COC)CC[C@H]3[C@@H](C)[C@H]2O)[C@H](O)[C@@H](O)[C@@H]1O`, the figures for the Kd in test [1] and in test [2] were 600 nM and 680 nM, respectively.
Consider `COC[C@H]1CC[C@@H]2/C1=C\[C@@]1(C)CCC([C@H](C)CNC(=O)C3CCCCC3)=C1[C@@H](O[C@H]1O[C@@H]3COC(C)(C)O[C@H]3[C@H](O)[C@H]1O)[C@H](O)[C@@H]2C`, for which the results for the Kd in test [1] and in test [2] were 32 nM and 130 nM, respectively. In addition, the result in the test with HEK293 was Active.
As for `COC[C@H]1CC[C@@H]2/C1=C\[C@@]1(C)CCC(C(C)C)=C1[C@@H](O[C@H]1O[C@@H]3COC(C)(C)O[C@H]3[C@H](O)[C@H]1O)[C@H](O)[C@@H]2C`, the Kd in test [1] worked out at 96 nM; in test [2], 230 nM. In the test on HEK293, the result was Active.
Consider `COC[C@H]1CC[C@@H]2/C1=C\[C@@]1(C)CCC([C@H](C)CNC(C)=O)=C1[C@@H](O[C@H]1O[C@@H]3COC(C)(C)O[C@H]3[C@H](O)[C@H]1O)[C@H](O)[C@@H]2C`, for which the Kd in test [1] was determined as 44 nM; in test [2], 110 nM. Moreover, the outcome in the test with HEK293 was Active.
With `COC[C@H]1CC[C@@H]2/C1=C\[C@@]1(C)CCC(C(C)C)=C1[C@@H](O[C@H]1O[C@H](CN)[C@@H](O)[C@H](O)[C@H]1O)[C@H](O)[C@@H]2C`, the Kd came to 70 nM in test [1] and 60 nM in test [2]. Moreover, in the test with HL-60 [4], the result was Active.
As to `CC(C)C1=C2[C@@H](O[C@H]3O[C@@H]4COC(C)(C)O[C@H]4[C@H](O)[C@H]3O)[C@H](O)[C@H](C)[C@@H]3CC[C@H](COC(F)(F)F)/C3=C/[C@@]2(C)CC1`, in test [2], the equilibrium dissociation constant (Kd) amounted to 650 nM.
As to `CCCNC[C@H]1O[C@H](O[C@@H]2C3=C(C(C)C)CC[C@]3(C)/C=C3/[C@@H](COC)CC[C@H]3[C@@H](C)[C@H]2O)[C@H](O)[C@@H](O)[C@@H]1O`, the Kd in test [1] stood at 120 nM; in test [2], 160 nM. In the test with HL-60 [4], the result was Active.
For `C=CC(C)(C)OC[C@H]1O[C@H](O[C@@H]2C3=C(C(C)C)C[C@H](OCc4ccccc4C(=O)OC)[C@]3(C)/C=C3/[C@@H](COC)CC[C@H]3[C@@H](C)[C@H]2O)[C@H](O)[C@@H](O)[C@@H]1O`, the Kd in test [1] is 530 nM; in test [2], 660 nM.
In the same order, the values of `C=CC(C)(C)OC[C@H]1O[C@H](O[C@@H]2C3=C(C(C)C)C[C@H](O)[C@]3(C)/C=C3/[C@@H](COC)CC[C@H]3[C@@H](C)[C@H]2O)[C@H](O)[C@@H](O)[C@@H]1O` are 77 nM and 430 nM.
For the molecule `C=CC(C)(C)OC[C@H]1O[C@H](O[C@@H]2C3=C(C(C)C)C[C@H](OCc4ccccc4N=[N+]=[N-])[C@]3(C)/C=C3/[C@@H](COC)CC[C@H]3[C@@H](C)[C@H]2O)[C@H](O)[C@@H](O)[C@@H]1O`, the Kd was found to be 480 nM in test [1] and 680 nM in test [2].
With `CC(C)OC[C@H]1CC[C@@H]2/C1=C\[C@@]1(C)CCC(C(C)C)=C1[C@@H](O[C@H]1O[C@@H]3COC(C)(C)O[C@H]3[C@H](O)[C@H]1O)[C@H](O)[C@@H]2C`, the Kd in test [2] is 680 nM.
Regarding `C=CC(C)(C)OC[C@H]1O[C@H](O[C@@H]2C3=C(C(C)C)C[C@H](OCc4ccccc4C(=O)O)[C@]3(C)/C=C3/[C@@H](COC)CC[C@H]3[C@@H](C)[C@H]2O)[C@H](O)[C@@H](O)[C@@H]1O`, the results for the Kd in test [1] and in test [2] were 480 nM and 540 nM, respectively.
For `COC[C@H]1CC[C@@H]2/C1=C\[C@@]1(C)CCC([C@H](C)CNC(=O)C3CC3)=C1[C@@H](O[C@H]1O[C@@H]3COC(C)(C)O[C@H]3[C@H](O)[C@H]1O)[C@H](O)[C@@H]2C`, the Kd in test [1] turned out to be 41 nM; in test [2] it was 110 nM. Also, in the test on HEK293, the outcome was Active.
For the molecule `COC[C@H]1CC[C@@H]2/C1=C\[C@@]1(C)CCC(C(C)C)=C1[C@@H](O[C@H]1O[C@@H]3CO[C@@H](OCCCN)[C@@H]3[C@H]1O)[C@H](O)[C@@H]2C`, 10000 nM corresponded to half-maximal inhibition in the test with HL-60 [3] (IC50).
